Test results from patent US20260158014A1, “METHODS OF ADMINISTERING VOXELOTOR” (Global Blood Therapeutics, Inc., priority 2021, published 2026).

Key:
[1] = target: CYP3A4 (Homo sapiens, UniProt P08684); assay: Clinical probe-substrate DDI study: midazolam; conditions: healthy subjects
Procedure: The effect of voxelotor on the pharmacokinetics (PK) of a single dose of caffeine, warfarin sodium, omeprazole, and midazolam hydrochloride, which are probe substrates for cytochrome P450 (CYP)1A2, CYP2C9, CYP2C19, and CYP3A4, respectively, were studied in healthy subjects. During Period 1, subjects received a single dose of caffeine 100 mg, warfarin sodium 10 mg+vitamin K 10 mg, omeprazole 20 mg, and midazolam hydrochloride 2 mg on Day 1. During Period 2, subjects received voxelotor 900 mg QD on Days 1 and 2 followed by 600 mg QD on Day 3, a single dose of caffeine 100 mg, warfarin sodium 10 mg+vitamin K 10 mg, omeprazole 20 mg, and midazolam hydrochloride 2 mg on Day 4, and voxelotor 600 mg QD on Days 4 through 7.
Whole blood and plasma concentrations of voxelotor and plasma concentrations of caffeine, paraxanthine, S-warfarin, omeprazole, 5-hydroxyomeprazole, midazolam, and 1-hydroxymidazolam were determined using validated assays.

[2] = target: P-gp (Homo sapiens, UniProt P08183); assay: Clinical DDI: voxelotor on digoxin; conditions: in vivo
[3] = voxelotor 900 mg QD days 1-2, then 600 mg QD, midazolam hydrochloride 2 mg single dose

Chain of CYP3A4 (P08684 whole entry): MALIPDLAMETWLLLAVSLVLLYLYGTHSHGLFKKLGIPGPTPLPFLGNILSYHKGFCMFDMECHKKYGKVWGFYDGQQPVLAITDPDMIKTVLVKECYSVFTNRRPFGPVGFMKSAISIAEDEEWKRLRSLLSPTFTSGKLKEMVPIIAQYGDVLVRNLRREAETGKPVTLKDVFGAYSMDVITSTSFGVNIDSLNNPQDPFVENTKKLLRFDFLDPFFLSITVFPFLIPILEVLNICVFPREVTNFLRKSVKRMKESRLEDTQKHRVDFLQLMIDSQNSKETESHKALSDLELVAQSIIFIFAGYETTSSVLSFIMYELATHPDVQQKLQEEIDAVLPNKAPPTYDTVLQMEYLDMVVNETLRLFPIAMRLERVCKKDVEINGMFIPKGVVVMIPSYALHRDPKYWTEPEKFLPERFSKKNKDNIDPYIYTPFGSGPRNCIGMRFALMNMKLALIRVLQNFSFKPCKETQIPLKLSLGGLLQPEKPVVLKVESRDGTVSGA
Chain of P-gp (P08183 whole entry): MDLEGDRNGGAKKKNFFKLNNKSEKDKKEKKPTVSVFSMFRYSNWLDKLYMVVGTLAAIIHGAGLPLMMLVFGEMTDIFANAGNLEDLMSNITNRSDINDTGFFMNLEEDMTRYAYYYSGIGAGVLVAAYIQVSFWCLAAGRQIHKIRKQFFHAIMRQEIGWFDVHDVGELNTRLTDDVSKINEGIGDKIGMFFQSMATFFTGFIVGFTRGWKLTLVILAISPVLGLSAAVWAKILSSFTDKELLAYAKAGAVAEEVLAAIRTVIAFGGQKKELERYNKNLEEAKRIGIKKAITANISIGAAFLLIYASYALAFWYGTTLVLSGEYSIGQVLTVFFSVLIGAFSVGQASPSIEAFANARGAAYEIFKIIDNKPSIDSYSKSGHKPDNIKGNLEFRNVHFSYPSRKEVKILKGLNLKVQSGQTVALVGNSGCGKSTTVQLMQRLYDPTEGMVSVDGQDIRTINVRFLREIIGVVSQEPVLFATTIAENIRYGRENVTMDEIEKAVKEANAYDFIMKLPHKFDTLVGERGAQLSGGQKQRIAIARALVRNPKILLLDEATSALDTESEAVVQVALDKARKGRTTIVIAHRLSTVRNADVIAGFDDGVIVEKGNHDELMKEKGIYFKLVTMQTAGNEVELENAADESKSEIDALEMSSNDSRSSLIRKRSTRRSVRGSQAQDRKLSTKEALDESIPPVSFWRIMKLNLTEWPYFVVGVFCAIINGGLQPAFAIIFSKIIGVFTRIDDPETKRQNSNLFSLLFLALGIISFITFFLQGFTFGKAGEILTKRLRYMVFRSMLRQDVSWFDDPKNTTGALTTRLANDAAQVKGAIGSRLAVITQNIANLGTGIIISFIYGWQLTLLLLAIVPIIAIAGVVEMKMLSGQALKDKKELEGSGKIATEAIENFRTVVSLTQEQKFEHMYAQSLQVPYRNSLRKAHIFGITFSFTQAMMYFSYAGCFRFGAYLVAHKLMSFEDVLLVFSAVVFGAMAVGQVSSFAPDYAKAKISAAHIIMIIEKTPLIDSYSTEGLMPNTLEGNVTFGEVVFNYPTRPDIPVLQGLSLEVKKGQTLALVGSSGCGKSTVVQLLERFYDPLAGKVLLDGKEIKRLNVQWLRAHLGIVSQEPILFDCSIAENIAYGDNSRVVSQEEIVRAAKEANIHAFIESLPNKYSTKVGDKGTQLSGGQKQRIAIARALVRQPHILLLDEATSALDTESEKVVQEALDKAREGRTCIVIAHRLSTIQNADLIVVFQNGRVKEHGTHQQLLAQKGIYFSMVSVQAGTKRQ

`OCc1ncc2n1-c1ccc(Cl)cc1C(c1ccccc1F)=NC2` [1′-hydroxy-midazolam] was tested, and the “increase of overall exposure of midazolam metabolite in the presence of voxelotor” value [1, 3] was 75%.

In the case of `C[C@H]1O[C@@H](O[C@H]2[C@@H](O)C[C@H](O[C@H]3[C@@H](O)C[C@H](O[C@H]4CC[C@@]5(C)[C@H](CC[C@@H]6[C@@H]5C[C@@H](O)[C@]5(C)[C@@H](C7=CC(=O)OC7)CC[C@]65O)C4)O[C@@H]3C)O[C@@H]2C)C[C@H](O)[C@@H]1O` [digoxin], the “effect of concomitant OXBRYTA on digoxin (P-gp substrate)” value [2] is reported as “did not alter digoxin to a clinically relevant extent”.

For `Cc1ncc2n1-c1ccc(Cl)cc1C(c1ccccc1F)=NC2` [midazolam], the “observed exposure increase of midazolam with voxelotor” value [1] was 1.6 fold and the “increase of overall exposure of midazolam in the presence of voxelotor” value [1, 3] was 63%.
